One may read the melting point as the temperature of the solid-liquid transition. As to `C[C@H](NC(=O)c1c(CN2CCN(C[C@H](O)CO)C(=O)C2)c(-c2ccccc2)nc2ccccc12)C1CCCCC1` [Example 4, (S) 3-[4-(2,3-Dihydroxy-propyl)-3-oxo-piperazin-1-ylmethyl]-2-phenyl-quinoline-4-carboxylic acid ((S)-1-cyclohexyl-ethyl)-amide], the melting point lay within 125 to 127 °C.
The molecule `C[C@H](NC(=O)c1c(CN2CCN(C[C@@H](O)CO)C(=O)C2)c(-c2ccccc2)nc2ccccc12)C1CCCCC1` [Example 5, (R) 3-[4-(2,3-Dihydroxy-propyl)-3-oxo-piperazin-1-ylmethyl]-2-phenyl-quinoline-4-carboxylic acid ((S)-1-cyclohexyl-ethyl)-amide] showed a melting point of 133 to 135 °C.
Under `C[C@H](NC(=O)c1c(CN2CCNC(=O)C2)c(-c2ccccc2)nc2cc(F)c(F)cc12)C1CCCCC1` [Example 2, 6,7-Difluoro-3-(3-oxo-piperazin-1-ylmethyl)-2-phenyl-quinoline-4-carboxylic acid ((S)-1-cyclohexyl-ethyl)-amide] stands 185 to 190 °C; under `C[C@H](NC(=O)c1c(CN2CCN(CCOCCO)C(=O)C2)c(-c2ccccc2)nc2ccccc12)C1CCCCC1` [Example 16, 3-{4-[2-(2-Hydroxy-ethoxy)-ethyl]-3-oxo-piperazin-1-ylmethyl}-2-phenyl-quinoline-4-carboxylic acid ((S)-1-cyclohexyl-ethyl)-amide], 125 to 128 °C.
The figure for `C[C@H](NC(=O)c1c(CN2CCN(CCOCCO)CC2)c(-c2ccccc2)nc2ccc(F)cc12)C1CCCCC1` [Example 8, 6-Fluoro-3-{4-[2-(2-hydroxy-ethoxy)-ethyl]-piperazin-1-ylmethyl}-2-phenyl-quinoline-4-carboxylic acid ((S)-1-cyclohexyl-ethyl)-amide] is 142 to 144 °C; for `C[C@H](NC(=O)c1c(CN2CCN(CCOCCO)CC2)c(-c2cccs2)nc2ccccc12)C1CCCCC1` [Example 11, 3-{4-[2-(2-Hydroxy-ethoxy)-ethyl]-piperazin-1-ylmethyl}-2-thiophen-2-yl-quinoline-4-carboxylic acid ((S)-1-cyclohexyl-ethyl)-amide] it is 182 to 188 °C.
Under `C[C@H](NC(=O)c1c(CN2CCN(CCCO)CC2)c(-c2ccccc2)nc2ccccc12)C1CCCCC1` [Example 13, 3-[4-(3-Hydroxy-propyl)-piperazin-1-ylmethyl]-2-phenyl-quinoline-4-carboxylic acid ((S)-1-cyclohexyl-ethyl)-amide] stands 168 to 170 °C; under `C[C@H](NC(=O)c1c(CN2CCN(CCCO)CC2)c(-c2ccccc2)nc2ccc(F)cc12)C1CCCCC1` [Example 9, 6-Fluoro-3-[4-(3-hydroxy-propyl)-piperazin-1-ylmethyl]-2-phenyl-quinoline-4-carboxylic acid ((S)-1-cyclohexyl-ethyl)-amide], 182 to 184 °C.
Take `C[C@H](NC(=O)c1c(CN2CCN(C[C@H](O)CO)CC2)c(-c2ccccc2)nc2ccccc12)C1CCCCC1` [Example 19, 3-[4-((S)-2,3-Dihydroxy-propyl)-piperazin-1-ylmethyl]-2-phenyl-quinoline-4-carboxylic acid ((S)-1-cyclohexyl-ethyl)-amide]: the melting point was 124 to 126 °C.
Under `C[C@H](NC(=O)c1c(CN2CCN(C[C@H](O)CO)C(=O)C2)c(-c2cccs2)nc2ccccc12)C1CCCCC1` [Example 23, 3-[4-((S)-2,3-Dihydroxy-propyl)-3-oxo-piperazin-1-ylmethyl]-2-thiophen-2-yl-quinoline-4-carboxylic acid ((S)-1-cyclohexyl-ethyl)-amide] stands 115 to 117 °C.
The figure for `C[C@H](NC(=O)c1c(CN2CCN(CCCO)C(=O)C2)c(-c2cccs2)nc2ccccc12)C1CCCCC1` [Example 18, 3-[4-(3-Hydroxy-propyl)-3-oxo-piperazin-1-ylmethyl]-2-thiophen-2-yl-quinoline-4-carboxylic acid ((S)-1-cyclohexyl-ethyl)-amide] is 117 to 119 °C; for `C[C@H](NC(=O)c1c(CN2CCN(C(=O)NCCO)CC2)c(-c2ccccc2)nc2ccccc12)C1CCCCC1` [Example 25, 3-[4-(2-Hydroxy-ethylcarbamoyl)-piperazin-1-ylmethyl]-2-phenyl-quinoline-4-carboxylic acid ((S)-1-cyclohexyl-ethyl)-amide] it is 155 to 157 °C.
The figure for `C[C@H](NC(=O)c1c(CN2CCN(CCCO)C(=O)C2)c(-c2ccccc2)nc2ccccc12)C1CCCCC1` [Example 14, 3-[4-(3-Hydroxy-propyl)-3-oxo-piperazin-1-ylmethyl]-2-phenyl-quinoline-4-carboxylic acid ((S)-1-cyclohexyl-ethyl)-amide] is 120 to 122 °C; for `C[C@H](NC(=O)c1c(CN2CCNCC2=O)c(-c2ccccc2)nc2ccc(F)cc12)C1CCCCC1` [Example 15, 6-Fluoro-3-(2-oxo-piperazin-1-ylmethyl)-2-phenyl-quinoline-4-carboxylic acid ((S)-1-cyclohexyl-ethyl)-amide] it is 240 to 242 °C.
Molecule `C[C@H](NC(=O)c1c(CN2CCN(CCO)CC2)c(-c2ccccc2)nc2ccc(F)cc12)C1CCCCC1` [Example 10, 6-Fluoro-3-[4-(2-hydroxy-ethyl)-piperazin-1-ylmethyl]-2-phenyl-quinoline-4-carboxylic acid ((S)-1-cyclohexyl-ethyl)-amide] returned a melting point of 114 to 116 °C.
As to `C[C@H](NC(=O)c1c(CN2CCN(CCO)C(=O)C2)c(-c2cccs2)nc2ccccc12)C1CCCCC1` [Example 1, 3-[4-(2-Hydroxy-ethyl)-3-oxo-piperazin-1-ylmethyl]-2-thiophen-2-yl-quinoline-4-carboxylic acid ((S)-1-cyclohexyl-ethyl)-amide], the melting point was 212 to 215 °C.
Under `C[C@H](NC(=O)c1c(CN2CCN(CCOCCO)C(=O)C2)c(-c2ccccc2)nc2ccc(F)cc12)C1CCCCC1` [Example 3, 6-Fluoro-3-{4-[2-(2-hydroxy-ethoxy)-ethyl]-3-oxo-piperazin-1-ylmethyl}-2-phenyl-quinoline-4-carboxylic acid ((S)-1-cyclohexyl-ethyl)-amide] stands 110 to 112 °C; under `C[C@H](NC(=O)c1c(CN2CCN(CCOCCO)C(=O)C2)c(-c2cccs2)nc2ccccc12)C1CCCCC1` [Example 17, 3-{4-[2-(2-Hydroxy-ethoxy)-ethyl]-3-oxo-piperazin-1-ylmethyl}-2-thiophen-2-yl-quinoline-4-carboxylic acid ((S)-1-cyclohexyl-ethyl)-amide], 102 to 104 °C; under `C[C@H](NC(=O)c1c(CN2CCN(CCCO)C(=O)C2)c(-c2ccccc2)nc2ccc(F)cc12)C1CCCCC1` [Example 6, 6-Fluoro-3-[4-(3-hydroxy-propyl)-3-oxo-piperazin-1-ylmethyl]-2-phenyl-quinoline-4-carboxylic acid ((S)-1-cyclohexyl-ethyl)-amide], 110 to 130 °C.
The figure for `C[C@H](NC(=O)c1c(CN2CCN(CCO)CC2)c(-c2cccs2)nc2ccccc12)C1CCCCC1` [Example 12, 3-[4-(2-Hydroxy-ethyl)-piperazin-1-ylmethyl]-2-thiophen-2-yl-quinoline-4-carboxylic acid ((S)-1-cyclohexyl-ethyl)-amide] is 110 °C; for `C[C@H](NC(=O)c1c(CN2CCN(CCO)C(=O)C2)c(-c2ccccc2)nc2ccc(F)cc12)C1CCCCC1` [Example 7, 6-Fluoro-3-[4-(2-hydroxy-ethyl)-3-oxo-piperazin-1-ylmethyl]-2-phenyl-quinoline-4-carboxylic acid ((S)-1-cyclohexyl-ethyl)-amide] it is 120 to 122 °C.
The figure for `C[C@H](NC(=O)c1c(CN2CCN(C[C@@H](O)CO)CC2)c(-c2ccccc2)nc2ccccc12)C1CCCCC1` [Example 20, 3-[4-((R)-2,3-Dihydroxy-propyl)-piperazin-1-ylmethyl]-2-phenyl-quinoline-4-carboxylic acid ((S)-1-cyclohexyl-ethyl)-amide] is 126 to 128 °C.
In turn, `CC(NC(=O)c1c(CN2CCN(C[C@H](O)CO)C(=O)C2)c(-c2ccccc2)nc2ccc(F)cc12)C1CCCCC1` (stereo partly drawn) [Example 21, 3-[4-((S)-2,3-Dihydroxy-propyl)-3-oxo-piperazin-1-ylmethyl]-6-fluoro-2-phenyl-quinoline-4-carboxylic acid (1-cyclohexyl-ethyl)-amide] yielded a melting point of 190 to 192 °C.
The molecule `C[C@H](NC(=O)c1c(CN2CCN(C[C@@H](O)CO)C(=O)C2)c(-c2ccccc2)nc2ccc(F)cc12)C1CCCCC1` [Example 22, 3-[4-((R)-2,3-Dihydroxy-propyl)-3-oxo-piperazin-1-ylmethyl]-6-fluoro-2-phenyl-quinoline-4-carboxylic acid ((S)-1-cyclohexyl-ethyl)-amide] returned a melting point of 143 to 145 °C.
